Among the data in BindingDB's records for doi:10.1021/jm00157a018 (1987) are Ki values, retold here.

Residues, ends and D or L forms follow the SMILES beside them. *: point of attachment. X2 = O=C(N/N=C1/CC[C@@]2(O)[C@H]3Cc4ccc(O)c5c4[C@@]2(CCN3CC2CC2)[C@H]1O5)*; X1 = CN1CC[C@]23c4c5ccc(O)c4O[C@H]2/C(=N\NC(=O)*)CC[C@@]3(O)[C@H]1C5

Assay [1] in a line: Binding affinity against Opioid receptor delta 1 of guinea pig brain membranes using 1 nM of [3H]DADLE as radioligand.
The target of a further assay is Mu-type opioid receptor (Cavia porcellus, UniProt P97266). The assay is described as follows: ChEBML_145291.
Mu-type opioid receptor, sequence (P97266 whole entry): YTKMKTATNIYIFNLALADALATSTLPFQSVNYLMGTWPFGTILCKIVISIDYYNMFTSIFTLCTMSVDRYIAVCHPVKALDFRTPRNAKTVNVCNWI

Take `NC(=O)NN=C1CC[C@@]2(O)C3Cc4ccc(O)c5c4C2(CCN3CC2CC2)[C@H]1O5` (stereo partly drawn): the Ki – broadly, a measure of affinity in units of concentration, obtained from inhibition or displacement – in assay [1] was determined as 3.7 nM.
Still for that read-out and setting: next, `CC[C@H](C)[C@H](NC(=O)[C@H](CCCNC(=N)N)NC(=O)[C@H](CCCNC(=N)N)NC(=O)[C@H](CC(C)C)NC(=O)[C@H](Cc1ccccc1)NC(=O)CNC(=O)CNC(=O)[C@@H](N)Cc1ccc(O)cc1)C(=O)OC`: 50 nM; `CC(C)CC(NC(=O)C(Cc1ccccc1)NC(=O)NN=C1CC[C@@]2(O)C3Cc4ccc(O)c5c4C2(CCN3C)[C@H]1O5)C(=O)O` (stereo partly drawn): 6.5 nM.
With `CN1CCC23c4c5ccc(O)c4O[C@H]2C(=NNC(N)=O)CC[C@@]3(O)C1C5` (stereo partly drawn), the results for the inhibition constant (Ki) (at Mu-type opioid receptor; in assay [1]) were 15 nM and 69 nM, respectively.
Turning to `CC(C)CC(NC(=O)C(Cc1ccccc1)NC(=O)NN=C1CC[C@@]2(O)C3Cc4ccc(O)c5c4C2(CCN3CC2CC2)[C@H]1O5)C(=O)O` (stereo partly drawn), the Ki in assay [1] was 3.1 nM.
For the compound `CC[C@H](C)[C@H](NC(=O)[C@H](CCCN=C(N)N)NC(=O)[C@H](CCCN=C(N)N)NC(=O)[C@H](CC(C)C)NC(=O)[C@H](Cc1ccccc1)NC(=O)N/N=C1/CC[C@@]2(O)[C@H]3Cc4ccc(O)c5c4[C@@]2(CCN3C)[C@H]1O5)C(=O)OC` (X1-FLRRI-OMe), the Ki in assay [1] came to 24 nM.
Same read-out and setting: then `CC[C@H](C)[C@H](NC(=O)[C@H](CCCN=C(N)N)NC(=O)[C@H](CCCN=C(N)N)NC(=O)[C@H](CC(C)C)NC(=O)[C@H](Cc1ccccc1)NC(=O)N/N=C1/CC[C@@]2(O)[C@H]3Cc4ccc(O)c5c4[C@@]2(CCN3CC2CC2)[C@H]1O5)C(=O)OC` (X2-FLRRI-OMe), with 5.7 nM.
